Values of other authors in patent US20160082141A1, “CHITIN AND ALGINATE COMPOSITE FIBERS” (THE BOARD OF TRUSTEES OF THE UNIVERSITY OF ALABAMA, priority 2013, published 2016).

Conditions: Dubbs and Gupta 1998

Solubility in water, mass fraction: 20.9×10^−6 g vitamin E/g water | Solubility in water, mol fraction: 0.87×10^−6 mole vitamin E/mole water
Structure (SMILES): Cc1c(C)c2c(c(C)c1O)CC[C@@](C)(CCC[C@H](C)CCC[C@H](C)CCCC(C)C)O2 [Vitamin E, α-tocopherol]
